The source made the active and inactive calls. How the calls were made is not given here.
System: CCRIS mutagenicity, Ames/micronucleus/aberration tests
Assay: CCRIS mutagenicity studies

Cc1ccccc1O
mutagenic call (Test System: Ames Salmonella typhimurium, Strain/Indicator: TA98, Metabolic Activation: Hamster, Liver, S-9, Aroclor 1254 (10%), Method: Preincubation): inactive; negative
mutagenic call (Test System: Ames Salmonella typhimurium, Strain/Indicator: TA98, Metabolic Activation: None, Method: Preincubation): inactive; negative
mutagenic call (Test System: Ames Salmonella typhimurium, Strain/Indicator: TA98, Metabolic Activation: Rat, Liver, S-9, Aroclor 1254 (10%), Method: Preincubation): inactive; negative
mutagenic call (Test System: Ames Salmonella typhimurium, Strain/Indicator: TA100, Metabolic Activation: Hamster, Liver, S-9, Aroclor 1254 (10%), Method: Preincubation): inactive; negative
mutagenic call (Test System: Ames Salmonella typhimurium, Strain/Indicator: TA100, Metabolic Activation: None, Method: Preincubation): inactive; negative
mutagenic call (Test System: Ames Salmonella typhimurium, Strain/Indicator: TA100, Metabolic Activation: Rat, Liver, S-9, Aroclor 1254 (10%), Method: Preincubation): inactive; negative
mutagenic call (Test System: Ames Salmonella typhimurium, Strain/Indicator: TA1535, Metabolic Activation: Hamster, Liver, S-9, Aroclor 1254 (10%), Method: Preincubation): inactive; negative
mutagenic call (Test System: Ames Salmonella typhimurium, Strain/Indicator: TA1535, Metabolic Activation: None, Method: Preincubation): inactive; negative
mutagenic call (Test System: Ames Salmonella typhimurium, Strain/Indicator: TA1535, Metabolic Activation: Rat, Liver, S-9, Aroclor 1254 (10%), Method: Preincubation): inactive; negative
mutagenic call (Test System: Ames Salmonella typhimurium, Strain/Indicator: TA1537, Metabolic Activation: Hamster, Liver, S-9, Aroclor 1254 (10%), Method: Preincubation): inactive; negative
mutagenic call (Test System: Ames Salmonella typhimurium, Strain/Indicator: TA1537, Metabolic Activation: None, Method: Preincubation): inactive; negative
mutagenic call (Test System: Ames Salmonella typhimurium, Strain/Indicator: TA1537, Metabolic Activation: Rat, Liver, S-9, Aroclor 1254 (10%), Method: Preincubation): inactive; negative

COc1c2ccoc2c(OC)c2oc(=O)ccc12
mutagenic call (Test System: AMES SALMONELLA TYPHIMURIUM, Strain/Indicator: TA98, Metabolic Activation: NONE, Method: STANDARD PLATE): inactive; negative
mutagenic call (Test System: AMES SALMONELLA TYPHIMURIUM, Strain/Indicator: TA98, Metabolic Activation: RAT, LIVER, S-9, PHENOBARBITAL, Method: STANDARD PLATE): inactive; negative

Nc1ccc(Cl)cc1N
mutagenic call (End Point: IN VITRO CHROMOSOMAL ABERRATIONS, Test System: CHL CELLS, Metabolic Activation: NONE): active; positive (structural changes)
mutagenic call (End Point: IN VITRO CHROMOSOMAL ABERRATIONS, Test System: CHL CELLS, Metabolic Activation: RAT, LIVER, S-9, SODIUM PHENOBARBITAL AND 5,6-BENZOFLAVONE): active; positive (structural changes)
mutagenic call (End Point: IN VITRO CHROMOSOMAL ABERRATIONS, Test System: CHO-LB CELLS, Metabolic Activation: NONE): active; positive
mutagenic call (End Point: IN VITRO CHROMOSOMAL ABERRATIONS, Test System: CHO-LB CELLS, Metabolic Activation: RAT, LIVER, S-9, AROCLOR 1254): inactive; negative
mutagenic call (End Point: IN VIVO MICRONUCLEUS, Test System: HEPATOCYTES, Species: RAT, Strain/Sex: FISHER 344 OR SD/MALE, Route: ORAL OR IP): inactive; negative
mutagenic call (End Point: IN VIVO MICRONUCLEUS, Test System: PERIPHERAL BLOOD RETICULOCYTES, Species: RAT, Strain/Sex: FISHER 344 OR SD/MALE, Route: ORAL OR IP): inactive; negative
mutagenic call (Test System: AMES SALMONELLA TYPHIMURIUM, Strain/Indicator: TA97, Metabolic Activation: HAMSTER, LIVER, S-9, AROCLOR 1254 (10%), Method: PREINCUBATION): active; positive
mutagenic call (Test System: AMES SALMONELLA TYPHIMURIUM, Strain/Indicator: TA97, Metabolic Activation: NONE, Method: PREINCUBATION): inactive; negative
mutagenic call (Test System: AMES SALMONELLA TYPHIMURIUM, Strain/Indicator: TA97, Metabolic Activation: RAT, LIVER, S-9, AROCLOR 1254 (10%), Method: PREINCUBATION): active; positive
mutagenic call (Test System: AMES SALMONELLA TYPHIMURIUM, Strain/Indicator: TA98, Metabolic Activation: HAMSTER, LIVER, S-9, AROCLOR 1254 (10%), Method: PREINCUBATION): active; positive
mutagenic call (Test System: AMES SALMONELLA TYPHIMURIUM, Strain/Indicator: TA98, Metabolic Activation: NONE, Method: PREINCUBATION): inactive; negative
mutagenic call (Test System: AMES SALMONELLA TYPHIMURIUM, Strain/Indicator: TA98, Metabolic Activation: RAT, LIVER, S-9, AROCLOR 1254 (10%), Method: PREINCUBATION): active; positive
mutagenic call (Test System: AMES SALMONELLA TYPHIMURIUM, Strain/Indicator: TA98, Metabolic Activation: RAT, LIVER, S-9, PCB, Method: PREINCUBATION): active; positive
mutagenic call (Test System: AMES SALMONELLA TYPHIMURIUM, Strain/Indicator: TA100, Metabolic Activation: HAMSTER, LIVER, S-9, AROCLOR 1254 (10%), Method: PREINCUBATION): active; positive
mutagenic call (Test System: AMES SALMONELLA TYPHIMURIUM, Strain/Indicator: TA100, Metabolic Activation: NONE, Method: PREINCUBATION): inactive; negative
mutagenic call (Test System: AMES SALMONELLA TYPHIMURIUM, Strain/Indicator: TA100, Metabolic Activation: RAT, LIVER, S-9, AROCLOR 1254 (10%), Method: PREINCUBATION): active; positive
mutagenic call (Test System: AMES SALMONELLA TYPHIMURIUM, Strain/Indicator: TA100, Metabolic Activation: RAT, LIVER, S-9, PCB, Method: PREINCUBATION): active; positive
mutagenic call (Test System: AMES SALMONELLA TYPHIMURIUM, Strain/Indicator: TA1535, Metabolic Activation: HAMSTER, LIVER, S-9, AROCLOR 1254 (10%), Method: PREINCUBATION): inactive; negative
mutagenic call (Test System: AMES SALMONELLA TYPHIMURIUM, Strain/Indicator: TA1535, Metabolic Activation: NONE, Method: PREINCUBATION): inactive; negative
mutagenic call (Test System: AMES SALMONELLA TYPHIMURIUM, Strain/Indicator: TA1535, Metabolic Activation: RAT, LIVER, S-9, AROCLOR 1254 (10%), Method: PREINCUBATION): inactive; negative
mutagenic call (Test System: E. COLI, Strain/Indicator: WP2 UVRA, Metabolic Activation: HAMSTER, LIVER, S-9, AROCLOR 1254, Method: STANDARD PLATE): inactive; negative
mutagenic call (Test System: E. COLI, Strain/Indicator: WP2 UVRA, Metabolic Activation: MOUSE, LIVER, S-9, AROCLOR 1254, Method: STANDARD PLATE): inactive; negative
mutagenic call (Test System: E. COLI, Strain/Indicator: WP2 UVRA, Metabolic Activation: MOUSE, LIVER, S-9, Method: STANDARD PLATE): inactive; negative
mutagenic call (Test System: E. COLI, Strain/Indicator: WP2 UVRA, Metabolic Activation: NONE, Method: STANDARD PLATE): inactive; negative
mutagenic call (Test System: E. COLI, Strain/Indicator: WP2 UVRA, Metabolic Activation: RAT, LIVER, S-9, Method: STANDARD PLATE): inactive; negative
mutagenic call (Test System: UDS RODENT HEPATOCYTES, Strain/Indicator: THY INCORP (NON-S-PHASE), Metabolic Activation: NONE, Method: AUTORADIOGRAPHY): active; positive
